The values below come from paper PMC10176470, “Engaging a Non-catalytic Cysteine Residue Drives Potent and Selective Inhibition of Caspase-6” (Journal of the American Chemical Society, 2023).

Common to all, as to assay type: cell-based
In assay [1] the target is T1, proteins of HEK293T cells transiently overexpressing caspase-6 (Homo sapiens, UniProt O43169).
T1 sequence (O43169 16-150): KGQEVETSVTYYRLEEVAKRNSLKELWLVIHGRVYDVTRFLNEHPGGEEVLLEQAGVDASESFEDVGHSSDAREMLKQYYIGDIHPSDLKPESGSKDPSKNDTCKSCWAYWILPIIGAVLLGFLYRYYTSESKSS
Particulars: protein CYB5B (O43169).

Assay [2] concerns the target T2, proteins of HEK293T cells transiently overexpressing caspase-6 (Homo sapiens, UniProt P11498).
T2 sequence (P11498 21-1178): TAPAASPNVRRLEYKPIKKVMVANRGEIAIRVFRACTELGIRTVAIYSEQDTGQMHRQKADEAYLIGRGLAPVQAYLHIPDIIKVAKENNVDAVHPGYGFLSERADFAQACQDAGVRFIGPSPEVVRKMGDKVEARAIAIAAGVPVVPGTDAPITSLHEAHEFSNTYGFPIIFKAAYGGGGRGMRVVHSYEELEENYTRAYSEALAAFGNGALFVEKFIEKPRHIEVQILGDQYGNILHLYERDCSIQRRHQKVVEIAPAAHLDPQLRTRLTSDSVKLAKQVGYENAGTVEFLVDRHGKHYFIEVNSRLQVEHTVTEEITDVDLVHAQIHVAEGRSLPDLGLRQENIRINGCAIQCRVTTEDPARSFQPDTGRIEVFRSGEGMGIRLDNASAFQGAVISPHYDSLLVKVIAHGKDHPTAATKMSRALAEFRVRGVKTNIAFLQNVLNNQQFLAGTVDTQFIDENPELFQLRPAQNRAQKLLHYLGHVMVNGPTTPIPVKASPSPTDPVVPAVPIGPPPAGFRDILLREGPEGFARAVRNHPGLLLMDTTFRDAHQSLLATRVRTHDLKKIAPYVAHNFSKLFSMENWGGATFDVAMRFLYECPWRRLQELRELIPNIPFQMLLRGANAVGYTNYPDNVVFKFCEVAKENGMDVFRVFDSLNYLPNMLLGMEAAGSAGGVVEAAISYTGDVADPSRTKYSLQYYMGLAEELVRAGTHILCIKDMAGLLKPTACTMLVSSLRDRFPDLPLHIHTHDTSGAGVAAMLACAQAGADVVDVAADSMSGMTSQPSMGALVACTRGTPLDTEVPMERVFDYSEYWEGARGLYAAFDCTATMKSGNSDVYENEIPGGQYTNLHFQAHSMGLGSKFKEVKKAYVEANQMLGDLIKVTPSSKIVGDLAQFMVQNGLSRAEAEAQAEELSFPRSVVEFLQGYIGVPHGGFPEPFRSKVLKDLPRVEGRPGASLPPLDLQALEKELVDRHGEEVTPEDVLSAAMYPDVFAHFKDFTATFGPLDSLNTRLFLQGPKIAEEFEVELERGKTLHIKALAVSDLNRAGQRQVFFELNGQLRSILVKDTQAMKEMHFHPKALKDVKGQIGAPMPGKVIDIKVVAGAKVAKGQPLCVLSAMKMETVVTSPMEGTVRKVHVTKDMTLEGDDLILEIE

Assay [3] concerns the target proteins of HEK293T cells transiently overexpressing caspase-6 (Homo sapiens, UniProt P13667). Particulars: Probe; protein PDIA4 P13667.
Assay [4] has as its target proteins of HEK293T cells transiently overexpressing caspase-6 (Homo sapiens, UniProt P22102). Conditions: exp_ref Probe; protein GART (P22102); analysis C6.
The target in assay [5] is T3, proteins of HEK293T cells transiently overexpressing caspase-6 (Homo sapiens, UniProt P27824).
T3 sequence (P27824 21-592): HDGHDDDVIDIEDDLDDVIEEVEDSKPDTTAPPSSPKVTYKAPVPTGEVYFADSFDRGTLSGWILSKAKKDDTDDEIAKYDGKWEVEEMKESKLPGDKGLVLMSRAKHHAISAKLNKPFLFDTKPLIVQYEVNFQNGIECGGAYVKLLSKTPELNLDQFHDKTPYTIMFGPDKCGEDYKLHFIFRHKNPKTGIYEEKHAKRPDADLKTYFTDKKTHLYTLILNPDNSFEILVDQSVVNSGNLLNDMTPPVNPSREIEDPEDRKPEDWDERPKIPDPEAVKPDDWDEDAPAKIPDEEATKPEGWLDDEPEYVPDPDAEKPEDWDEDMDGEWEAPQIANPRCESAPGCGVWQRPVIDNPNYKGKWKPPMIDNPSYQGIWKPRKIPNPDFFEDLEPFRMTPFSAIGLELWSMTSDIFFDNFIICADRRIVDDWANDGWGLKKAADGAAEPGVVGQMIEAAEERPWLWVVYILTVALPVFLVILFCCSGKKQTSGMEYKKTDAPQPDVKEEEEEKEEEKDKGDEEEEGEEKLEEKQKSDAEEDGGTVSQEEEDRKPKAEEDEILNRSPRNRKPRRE
Particulars: protein CANX (P27824).

The target of assay [6] is proteins of HEK293T cells transiently overexpressing caspase-6 (Homo sapiens, UniProt P52597). Conditions: Probe; protein HNRNPF P52597.
The target of assay [7] is proteins of HEK293T cells transiently overexpressing caspase-6 (Homo sapiens, UniProt P55884). Conditions: exp_ref Probe; protein EIF3B (P55884); analysis C6.
Assay [8] deals with proteins of HEK293T cells transiently overexpressing caspase-6 (Homo sapiens, UniProt Q00610). Conditions: exp_ref Probe; protein CLTC (Q00610); analysis C6.
For assay [9], the target named is proteins of HEK293T cells transiently overexpressing caspase-6 (Homo sapiens, UniProt Q13838). Particulars: exp_ref Probe; protein DDX39B (Q13838); analysis C6.
The target in assay [10] is proteins of HEK293T cells transiently overexpressing caspase-6 (Homo sapiens, UniProt Q14974). Conditions: protein KPNB1 (Q14974).
The target of assay [11] is proteins of HEK293T cells transiently overexpressing caspase-6 (Homo sapiens, UniProt Q9Y262). Particulars: exp_ref Probe; protein EIF3L (Q9Y262); analysis C6.
Sequence of proteins of HEK293T cells transiently overexpressing caspase-6 (Homo sapiens, UniProt Q9Y262) (Q9Y262 whole entry): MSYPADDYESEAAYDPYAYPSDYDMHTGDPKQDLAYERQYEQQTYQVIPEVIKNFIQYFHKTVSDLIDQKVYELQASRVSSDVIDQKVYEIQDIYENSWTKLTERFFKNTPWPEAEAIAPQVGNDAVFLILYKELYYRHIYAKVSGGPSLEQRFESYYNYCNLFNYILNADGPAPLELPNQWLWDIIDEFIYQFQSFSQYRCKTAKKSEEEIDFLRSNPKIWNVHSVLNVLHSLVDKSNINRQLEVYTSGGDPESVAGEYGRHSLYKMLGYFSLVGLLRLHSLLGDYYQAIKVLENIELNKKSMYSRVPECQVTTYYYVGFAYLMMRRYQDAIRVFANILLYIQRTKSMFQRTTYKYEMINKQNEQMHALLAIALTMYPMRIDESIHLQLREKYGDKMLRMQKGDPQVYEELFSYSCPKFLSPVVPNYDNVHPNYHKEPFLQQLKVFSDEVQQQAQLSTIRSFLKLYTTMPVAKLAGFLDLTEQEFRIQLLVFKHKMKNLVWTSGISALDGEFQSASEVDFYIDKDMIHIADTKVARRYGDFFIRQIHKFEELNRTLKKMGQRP

Sequence of proteins of HEK293T cells transiently overexpressing caspase-6 (Homo sapiens, UniProt Q14974) (Q14974 whole entry): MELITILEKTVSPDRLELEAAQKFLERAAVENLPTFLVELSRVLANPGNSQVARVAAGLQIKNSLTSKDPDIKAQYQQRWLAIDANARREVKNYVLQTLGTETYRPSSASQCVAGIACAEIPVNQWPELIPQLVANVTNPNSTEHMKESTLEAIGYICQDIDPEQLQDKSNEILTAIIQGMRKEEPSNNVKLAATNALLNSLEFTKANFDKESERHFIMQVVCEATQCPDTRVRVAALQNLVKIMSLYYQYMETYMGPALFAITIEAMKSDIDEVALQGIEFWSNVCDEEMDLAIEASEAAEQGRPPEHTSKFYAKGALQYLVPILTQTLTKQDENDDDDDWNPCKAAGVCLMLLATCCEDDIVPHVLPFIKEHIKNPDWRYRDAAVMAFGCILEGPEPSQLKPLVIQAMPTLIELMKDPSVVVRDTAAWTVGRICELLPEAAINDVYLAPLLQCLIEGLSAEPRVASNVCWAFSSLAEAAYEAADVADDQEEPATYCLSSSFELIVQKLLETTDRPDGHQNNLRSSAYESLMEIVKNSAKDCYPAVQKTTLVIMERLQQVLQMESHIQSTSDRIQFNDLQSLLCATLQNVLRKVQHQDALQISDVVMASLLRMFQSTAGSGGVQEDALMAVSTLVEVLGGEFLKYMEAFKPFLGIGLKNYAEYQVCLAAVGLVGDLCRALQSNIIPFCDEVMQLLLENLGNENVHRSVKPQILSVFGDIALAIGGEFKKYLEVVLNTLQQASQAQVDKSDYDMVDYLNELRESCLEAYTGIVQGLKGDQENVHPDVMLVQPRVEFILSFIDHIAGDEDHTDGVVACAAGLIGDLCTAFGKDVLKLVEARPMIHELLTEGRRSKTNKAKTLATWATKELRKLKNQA
Sequence of proteins of HEK293T cells transiently overexpressing caspase-6 (Homo sapiens, UniProt Q13838) (Q13838 whole entry): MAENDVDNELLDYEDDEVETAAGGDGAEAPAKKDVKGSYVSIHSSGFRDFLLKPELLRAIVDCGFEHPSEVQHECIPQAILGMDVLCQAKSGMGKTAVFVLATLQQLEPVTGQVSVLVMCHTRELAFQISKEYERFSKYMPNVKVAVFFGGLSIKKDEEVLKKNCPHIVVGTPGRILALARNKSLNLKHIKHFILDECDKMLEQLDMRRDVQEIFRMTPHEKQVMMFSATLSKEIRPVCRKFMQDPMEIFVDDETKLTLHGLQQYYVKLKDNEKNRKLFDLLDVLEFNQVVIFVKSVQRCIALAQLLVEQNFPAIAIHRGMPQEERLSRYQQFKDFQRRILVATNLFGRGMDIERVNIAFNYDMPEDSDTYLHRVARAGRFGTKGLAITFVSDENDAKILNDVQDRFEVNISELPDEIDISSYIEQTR
Sequence of proteins of HEK293T cells transiently overexpressing caspase-6 (Homo sapiens, UniProt P52597) (P52597 whole entry): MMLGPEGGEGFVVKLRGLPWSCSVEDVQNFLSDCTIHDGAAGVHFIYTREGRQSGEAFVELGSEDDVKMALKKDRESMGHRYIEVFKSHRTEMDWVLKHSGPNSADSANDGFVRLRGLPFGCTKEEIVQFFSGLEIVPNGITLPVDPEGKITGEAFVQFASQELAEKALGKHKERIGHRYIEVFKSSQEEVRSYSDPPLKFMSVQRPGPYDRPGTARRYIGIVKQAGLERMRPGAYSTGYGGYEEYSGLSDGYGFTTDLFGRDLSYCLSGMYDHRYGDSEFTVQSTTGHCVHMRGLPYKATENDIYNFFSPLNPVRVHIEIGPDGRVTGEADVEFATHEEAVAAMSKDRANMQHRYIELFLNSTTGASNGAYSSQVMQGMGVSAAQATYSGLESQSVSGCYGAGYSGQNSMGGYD
Sequence of proteins of HEK293T cells transiently overexpressing caspase-6 (Homo sapiens, UniProt P55884) (P55884 whole entry): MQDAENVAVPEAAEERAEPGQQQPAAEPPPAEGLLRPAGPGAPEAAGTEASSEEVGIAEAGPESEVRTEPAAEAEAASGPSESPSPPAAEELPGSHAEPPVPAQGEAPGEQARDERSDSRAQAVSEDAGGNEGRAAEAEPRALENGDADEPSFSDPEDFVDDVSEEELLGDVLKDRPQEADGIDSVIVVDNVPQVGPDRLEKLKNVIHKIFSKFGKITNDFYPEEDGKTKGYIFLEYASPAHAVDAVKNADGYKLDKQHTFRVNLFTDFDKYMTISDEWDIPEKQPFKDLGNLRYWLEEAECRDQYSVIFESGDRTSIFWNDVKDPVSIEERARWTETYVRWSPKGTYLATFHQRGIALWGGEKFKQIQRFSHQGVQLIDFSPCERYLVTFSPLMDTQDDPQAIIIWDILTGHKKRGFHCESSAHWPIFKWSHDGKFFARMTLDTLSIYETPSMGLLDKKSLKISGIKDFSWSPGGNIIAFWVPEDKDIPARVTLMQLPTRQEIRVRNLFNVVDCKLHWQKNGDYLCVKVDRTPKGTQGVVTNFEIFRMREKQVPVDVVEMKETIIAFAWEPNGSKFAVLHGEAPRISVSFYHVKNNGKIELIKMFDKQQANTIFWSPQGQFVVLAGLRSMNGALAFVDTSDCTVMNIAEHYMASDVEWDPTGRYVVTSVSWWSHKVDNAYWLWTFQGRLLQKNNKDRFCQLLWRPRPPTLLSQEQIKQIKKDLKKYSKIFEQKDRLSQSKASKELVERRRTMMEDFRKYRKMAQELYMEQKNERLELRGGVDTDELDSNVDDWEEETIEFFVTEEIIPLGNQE
Sequence of proteins of HEK293T cells transiently overexpressing caspase-6 (Homo sapiens, UniProt Q00610) (Q00610 whole entry): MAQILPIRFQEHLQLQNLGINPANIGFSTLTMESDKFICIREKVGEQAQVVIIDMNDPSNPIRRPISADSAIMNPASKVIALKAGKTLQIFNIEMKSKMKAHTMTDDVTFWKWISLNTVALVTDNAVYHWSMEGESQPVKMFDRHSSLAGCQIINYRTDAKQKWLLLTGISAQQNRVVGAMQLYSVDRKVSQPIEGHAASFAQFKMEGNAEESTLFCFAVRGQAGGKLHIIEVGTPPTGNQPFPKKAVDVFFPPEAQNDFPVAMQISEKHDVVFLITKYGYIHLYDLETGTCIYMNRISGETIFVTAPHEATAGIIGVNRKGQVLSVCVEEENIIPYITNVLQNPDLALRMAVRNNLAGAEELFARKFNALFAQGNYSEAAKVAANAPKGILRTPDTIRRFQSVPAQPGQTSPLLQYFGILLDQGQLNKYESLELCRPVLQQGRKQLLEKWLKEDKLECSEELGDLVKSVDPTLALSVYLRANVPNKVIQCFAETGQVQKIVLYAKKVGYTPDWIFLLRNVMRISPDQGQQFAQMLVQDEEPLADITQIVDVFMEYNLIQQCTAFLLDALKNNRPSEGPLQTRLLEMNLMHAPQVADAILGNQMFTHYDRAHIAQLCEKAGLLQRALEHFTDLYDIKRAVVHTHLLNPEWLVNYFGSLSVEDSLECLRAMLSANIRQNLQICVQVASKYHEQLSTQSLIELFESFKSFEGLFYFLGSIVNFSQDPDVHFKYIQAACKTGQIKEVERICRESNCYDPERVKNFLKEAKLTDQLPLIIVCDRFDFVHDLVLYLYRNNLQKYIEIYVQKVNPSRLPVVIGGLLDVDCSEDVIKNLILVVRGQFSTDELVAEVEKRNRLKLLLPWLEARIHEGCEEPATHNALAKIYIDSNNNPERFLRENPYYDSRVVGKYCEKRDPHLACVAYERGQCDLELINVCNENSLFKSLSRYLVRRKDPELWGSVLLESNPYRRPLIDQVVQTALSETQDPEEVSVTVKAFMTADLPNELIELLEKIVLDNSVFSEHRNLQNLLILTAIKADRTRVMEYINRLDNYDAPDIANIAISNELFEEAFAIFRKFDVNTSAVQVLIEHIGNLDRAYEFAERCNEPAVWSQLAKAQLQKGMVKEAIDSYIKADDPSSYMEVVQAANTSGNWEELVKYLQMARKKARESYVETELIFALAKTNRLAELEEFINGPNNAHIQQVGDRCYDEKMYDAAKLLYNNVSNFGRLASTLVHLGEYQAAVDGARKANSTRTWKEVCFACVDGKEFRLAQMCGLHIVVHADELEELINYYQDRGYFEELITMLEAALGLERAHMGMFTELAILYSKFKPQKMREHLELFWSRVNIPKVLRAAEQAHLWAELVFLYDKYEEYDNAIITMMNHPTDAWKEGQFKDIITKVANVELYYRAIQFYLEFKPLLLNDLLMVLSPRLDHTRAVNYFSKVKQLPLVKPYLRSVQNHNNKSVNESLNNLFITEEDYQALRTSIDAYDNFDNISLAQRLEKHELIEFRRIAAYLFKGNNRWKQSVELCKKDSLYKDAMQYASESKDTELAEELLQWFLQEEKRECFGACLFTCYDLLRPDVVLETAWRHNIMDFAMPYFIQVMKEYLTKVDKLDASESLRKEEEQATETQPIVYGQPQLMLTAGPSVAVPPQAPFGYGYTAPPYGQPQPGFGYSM

Consider `C#CCOc1ccc([C@@H]2C[C@@H](C(=O)Nc3ccc(OC(F)(F)F)cc3)CN(S(=O)(=O)C=C)C2)cc1` (relative stereo) [13-t], for which the enrich.exp.med.lin in assay [1] is 2.907; in assay [2] (protein PC (P11498)), 0.2259; in [5] it was 1.384; in assay [10], 1.716. The enrich.exp.med.log2 is 1.54 in assay [1], -2.146 in assay [2] (protein PC (P11498)), 0.4691 in assay [5] and 0.7787 in assay [10]. The enrich.exp.med was 1.54 in assay [1] (exp_ref Probe, analysis C6); -2.146 in assay [2] (Probe, protein PC P11498); -0.4487 in [3]; 0.2203 in [4]; 0.4691 in assay [5] (exp_ref Probe, analysis C6); -0.4498 in assay [6]. The enrich.exp.med in assay [7] is 0.2575; in [8], -0.1743; in assay [9], 0.9779; in [10] (exp_ref Probe, analysis C6), 0.7787; in assay [11], 0.2171.
